In patent US20230148450A9, “BICYCLIC HETEROARYL COMPOUNDS AND USES THEREOF” (Revolution Medicines, Inc., priority 2019, published 2023):

Target: T1, SOS1-mediated exchange of KRAS-4B:GDP to KRAS-4B:GTP (Homo sapiens, UniProt Q07889)
T1 construct: SOS1 (Cytoskeleton Inc., Cat. CS-GE02); purchased Cytoskeleton Inc. CS-GE02 (SOS1); CSRS03 (KRAS4-B)
T1 sequence (Q07889 564-1049 limits assumed): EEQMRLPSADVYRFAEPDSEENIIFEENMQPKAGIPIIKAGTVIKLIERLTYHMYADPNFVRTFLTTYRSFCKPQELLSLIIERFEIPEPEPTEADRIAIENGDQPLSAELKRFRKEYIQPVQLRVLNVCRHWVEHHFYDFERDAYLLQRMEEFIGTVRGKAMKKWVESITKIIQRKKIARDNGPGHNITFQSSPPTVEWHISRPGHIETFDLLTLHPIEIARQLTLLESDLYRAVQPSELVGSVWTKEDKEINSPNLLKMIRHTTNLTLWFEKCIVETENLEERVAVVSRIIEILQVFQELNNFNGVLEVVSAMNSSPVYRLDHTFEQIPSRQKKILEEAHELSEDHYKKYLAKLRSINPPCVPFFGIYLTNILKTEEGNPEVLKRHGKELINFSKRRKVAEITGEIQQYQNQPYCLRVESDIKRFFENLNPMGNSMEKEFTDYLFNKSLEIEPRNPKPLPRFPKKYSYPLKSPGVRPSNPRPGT
Test: Bodipy-FL-GTP Association Assay
Assay type: biochemical
Details: SOS1 GEF activity on KRAS-4B, 22° C.
Method: A low IC50 value for a given compound is indicative of high potency of said compound in inhibiting the guanine nucleotide exchange factor (GEF) activity of SOS1 on KRAS-4B in this assay setting. Reagents: BODIPY FL GTP (ThermoFisher Scientific, Cat. G12411); KRAS4-B (Cytoskeleton Inc., Cat. CSRS03); SOS1 (Cytoskeleton Inc., Cat. CS-GE02); 2× Assay Buffer: 40 mM Tris-HCl, pH 7.5; 100 mM NaCl; 20 mM MgCl2; 0.1 mg/mL BSA; 0.02% NP-40 Assay Procedure: Test compounds were dissolved in DMSO to create 20 mM master stocks. The stocks were diluted in a 3× dilution series in 100% DMSO to achieve 100× compound stocks. A 1 μl spot of each test compound stock was delivered to two adjacent wells of a 96-well assay plate prior to running the assay. Reaction Mix preparation: The following were mixed in order at room temperature to obtain the “Reaction Mix” (5.75 mL 2× Exchange Buffer; 3.22 mL MilliQ ddH2O; 3 μL 5 mM BODIPY FL GTP; 230 μL 50 μM KRAS-4B; 9.203 mL Total volume. Reaction initiation: 80 μL of Reaction Mix was pipetted into each well of a half-area black 96-well plate (Corning, Cat. 3686) containing either a 1 μL spot of DMSO or a 1 μL spot test compound at the concentrations listed above. 20 μL of 1 μM SOS1 was then added to each well to initiate the reaction. For the no GEF control wells this was replaced with 1× exchange buffer. Kinetic measurement: The reaction was monitored in a SpectraMax M2 Microplate Reader (Molecular Devices) under the following protocol: 5 second rapid circular mixing before first read; 61 readings, 30 seconds apart; Assay temperature: 22° C.; Excitation wavelength: 485 nm; Emission wavelength: 513 nm. Data Analysis: The V max values for the SOS1-mediated BODIPY FL GTP exchange curves in the presence of test compounds were normalized to the most dilute test sample columns or DMSO only control wells to give the % Activity for each concentration of test compound. Plots of % Activity vs. the Log10 of the compound concentration were fit by non-linear regression to a 4-parameter logistic model.

Row | IC50 [µM] | Structure (SMILES)
1 | 1 to 5 | Cc1nc(N[C@H](C)c2cccc(C(F)(F)F)c2)c2sc(C3=CCNCC3)cc2n1 [Example 1, 2-methyl-6-(1,2,3,6-tetrahydropyridin-4-yl)-N-[(1R)-1-[3-(trifluoromethyl)phenyl]ethyl]thieno [3,2-d] pyrimidin-4-amine]
2 | 1 to 5 | C[C@@H](Nc1ncnc2sc(C3=CCNCC3)cc12)c1cc(N)cc(C(F)(F)F)c1 [Example 3, N-[(1R)-1-[3-amino-5-(trifluoromethyl)phenyl]ethyl]-6-(1,2,3,6-tetrahydropyridin-4-yl)thieno[2,3-d]pyrimidin-4-amine]
3 | 1 to 5 | COCC(=O)N1CC=C(c2cc3c(N[C@H](C)c4cc(N)cc(C(F)(F)F)c4)ncnc3s2)CC1 [Example 4, 1-[4-(4-{[(1R)-1-[3-amino-5-(trifluoromethyl)phenyl]ethyl]amino}thieno[2,3-d]pyrimidin-6-yl)-1,2,3,6-tetrahydropyridin-1-yl]-2-methoxyethan-1-one]
4 | > 5 | Cc1nc(N[C@H](C)c2cccc(C(F)(F)F)c2)c2sc([C@]3(O)CC[C@@H](O)CC3)cc2n1 [Example 5, trans-1-(2-methyl-4-{[(1R)-1-[3-(trifluoromethyl)phenyl]ethyl]amino}thieno[3,2-d]pyrimidin-6-yl) cyclohexane-1,4-diol]
5 | 1 to 5 | Cc1nc(N[C@H](C)c2cccc(C(F)(F)F)c2)c2sc([C@]3(O)CC[C@H](O)CC3)cc2n1 [Example 6, cis-1-(2-methyl-4-{[(1R)-1-[3-(trifluoromethyl)phenyl]ethyl]amino}thieno[3,2-d]pyrimidin-6-yl)cyclohexane-1,4-diol]
6 | < 1 | C[C@@H](Nc1ncnc2sc(C3(O)CCC(O)CC3)cc12)c1cc(N)cc(C(F)(F)F)c1 (stereo partly drawn) [Example 7, 1-(4-{[(1R)-1-[3-amino-5-(trifluoromethyl)phenyl]ethyl]amino}thieno[2,3-d]pyrimidin-6-yl)cyclohexane-1,4-diol]
7 | 1 to 5 | C[C@@H](Nc1nccn2cc(C(=O)N3CCN(C)CC3)nc12)c1cc(N)cc(C(F)(F)F)c1 [Example 10, N-[(1R)-1-[3-amino-5-(trifluoromethyl)phenyl]ethyl]-2-(4-methylpiperazine-1-carbonyl)imidazo[1,2-a]pyrazin-8-amine]
8 | < 1 | C[C@@H](Nc1ncnn2cc(C3CCNCC3)cc12)c1cc(N)cc(C(F)(F)F)c1 [Example 11, N-[(1R)-1-[3-amino-5-(trifluoromethyl)phenyl]ethyl]-6-(piperidin-4-yl)pyrrolo[2,1-f][1,2,4]triazin-4-amine]
9 | < 1 | C[C@@H](Nc1ncnn2cc(C3=CCNCC3)cc12)c1cc(N)cc(C(F)(F)F)c1 [Example 12, N-[(1R)-1-[3-amino-5-(trifluoromethyl)phenyl]ethyl]-6-(1,2,3,6-tetrahydropyridin-4-yl)pyrrolo[2,1-f][1,2,4]triazin-4-amine]
10 | 1 to 5 | CC(=O)N1CC=C(c2cc3c(N[C@H](C)c4cc(N)cc(C(F)(F)F)c4)ncnn3c2)CC1 [Example 13, 1-[4-[4-[[(1R)-1-[3-amino-5-(trifluoromethyl)phenyl]ethyl]amino]pyrrolo[2,1-f][1,2,4]triazin-6-yl]-3,6-dihydro-2H-pyridin-1-yl]ethanone]
11 | 1 to 5 | C[C@@H](Nc1ncnn2cc(C3=CCNCC3)cc12)c1cccc(C(F)(F)F)c1 [Example 14]
12 | > 5 | CC(=O)N1CC=C(c2cc3c(N[C@H](C)c4cccc(C(F)(F)F)c4)ncnn3c2)CC1 [Example 15]
13 | > 5 | C[C@@H](Nc1nccn2cc(C(=O)NC[C@H]3CCOC3)nc12)c1cccc(C(F)(F)F)c1 [Example 17]
14 | > 5 | C[C@@H](Nc1nccn2cc(C(=O)N3CCN(C)CC3)nc12)c1cccc(C(F)(F)F)c1 [Example 18]
15 | > 5 | Cc1nc(N[C@H](C)c2cccc(C(F)(F)F)c2)c2cc(C3=CCNCC3)cn2n1 [Example 19]
16 | > 5 | C[C@@H](Nc1nc(C2CC2)nn2cc(C3=CCNCC3)cc12)c1cccc(C(F)(F)F)c1 [Example 20]
17 | 1 to 5 | COc1nc(N[C@H](C)c2cccc(C(F)(F)F)c2)c2cc(C3=CCNCC3)cn2n1 [Example 21]
18 | > 5 | COCC(=O)N1CC=C(c2cnc3c(N[C@H](C)c4cccc(C(F)(F)F)c4)nccn23)CC1 [Example 22]
19 | < 1 | C[C@@H](NC1=NC=NC2SC(C3(O)CCC(C(=O)N(C)C)CC3)=CC12)c1cc(N)cc(C(F)(F)F)c1 (stereo partly shown) [Example 23]
20 | > 5 | Cc1cn2nc(C(=O)N3CCOCC3)cc2c(N[C@H](C)c2cccc(C(F)(F)F)c2)n1 [Example 24]

Row | Structure (SMILES) | IC50 [µM]
21 | C[C@@H](Nc1ncnc2cc(C3=CCNCC3)sc12)c1cc(N)cc(C(F)(F)F)c1 [Example 9, N-[(1R)-1-[3-amino-5-(trifluoromethyl)phenyl]ethyl]-6-(1,2,3,6-tetrahydropyridin-4-yl)thieno[3,2-d]pyrimidin-4-amine] | < 1
22 | C[C@@H](Nc1ncnn2cc(C(=O)N3CCOCC3)cc12)c1cc(N)cc(C(F)(F)F)c1 [Example 16] | > 5
23 | Cc1cn2nc(C(=O)N3CCN(C)CC3)cc2c(N[C@H](C)c2cccc(C(F)(F)F)c2)n1 [Example 25] | > 5
24 | Cc1nc(N[C@H](C)c2cc(N)cc(C(F)(F)F)c2)c2cc(C3=CCNCC3)sc2n1 [Example 26] | 1 to 5
25 | CC(=O)N1CCN(c2cc3c(N[C@H](C)c4cccc(C(F)(F)F)c4)ncnn3c2)CC1 [Example 27] | < 1
